Consider 1 compound from article PMC11234460, “In Silico Discovery of Stapled Peptide Inhibitor Targeting the Nur77‐PPARγ Interaction and Its Anti‐Breast‐Cancer Efficacy” (Advanced Science, 2024).

Where a SMILES comes first, the peptide text is derived from it. Bridges are numbered along the chain shown (N, C = ends). [ ]: non-standard residue; d: D form. S5 = C=CCCC[C@](C)(N)C(=O)O

In series [1] the test system is MCF-10A cells. The note with it: 24 h, CCK-8.
Procedure: MCF7, MDA‐MB‐231, and MDA‐BoM‐1833 cells (5000 cells/well) were seeded in 96‐well plates and cultured overnight at 37°C and 5% CO2. The cells were then treated with fresh basic medium containing various concentrations (1/2/5/10/20 × 10^−6 M) of compounds. After 24 h of incubation, the cells were incubated with a basic medium containing 10% Cell Counting Kit‐8 (Dojindo, CK‐04) for 2 h. Cell viability was evaluated by measuring the absorbance at 450 nm. The formula used was [(As‐Ab)/(Ac‐Ab)] × 100%, where as represents the absorbance of the drug‐treated group, Ac represents the absorbance of the control group treated with medium, and Ab represents the absorbance of the blank control containing only medium.
Series [2] relates to MDA-MB-231 cells. Kind of series: qPCR of CD36 and FABP4. The series is classed as cell-based. The note with it: n = 3.
Series [3] relates to MDA-MB-231 cells. Kind of series: Western blot of Nur77, CD36 and FABP4. The series is classed as cell-based. On the procedure: MCF7 and MDA‐MB‐231 cells were treated with various concentrations of peptide. The cells were then collected and lysed in NP40 lysis buffer. Total protein was quantified using a BCA assay kit (Beyotime, P0010S). The proteins were separated by SDS‐PAGE and transferred onto a PVDF membrane. The PVDF membrane was blocked in TBST containing 5% non‐fat milk, and then incubated with primary antibodies overnight at 4 °C. Subsequently, membranes were incubated with horseradish peroxidase‐conjugated antirabbit or antimouse IgG secondary antibody for 1 h at room temperature. The membranes were analyzed by a Tanon‐5200 Multi Gel Imaging Analysis System (Tanon) and quantified by ImageJ software.

The test system of series [4] is MDA-MB-231 cells. The series can be described thus: Energy metabolism analysis (Seahorse OCR). The class given is cell-based. As to conditions: MDA-MB-231, 24 h treatment, n = 3. On the procedure:
Cell energy metabolism analysis was conducted using a Seahorse cell energy metabolism analyzer (Agilent, USA). In brief, 8000 cells were seeded per well in a 96‐well XF96 plate (Agilent, 103794‐100) and cultured overnight. Subsequently, the cells were treated with various concentrations of peptides for 24 h. To prepare for metabolic stress injections, cartridge plates (Agilent, w15023) were hydrated with H2O for at least 12 h at 37 °C before the assay. 1 h before detection, the medium in each well was replaced with 180 µL XF calibrant solution (Agilent, 100840‐000), Afterward, the cell plate was replaced with 180 µL XF DMEM (Agilent, 103575‐100) with glucose (1 × 10^−2 M) (Agilent, 103577‐100), pyruvate (1 × 10^−3 M) (Agilent, 103578‐100) and glutamine (2 × 10^−3 M) (Agilent, 103579‐100) and the mixture was incubated in a CO2‐free incubator at 37 °C for 1 h. Then, 20 µL basic medium, 22 µL 1.5 × 10^−4 M oligomycin, 25 µL 1.5 × 10^−4 M FCCP, and 27 µL 5 × 10^−5 M ROT/AA (Agilent, 10315‐100) were added to wells A, B, C, and D, respectively, of the cartridge plates. The assay was carried out according to the manufacturer's instructions, and the OCR was reported in picomoles per min. The results were normalized to the cell number determined by the CCK‐8 assay.

In series [5] the test system is mutated Nur77-EGFP (Gln571, Glu398, Phe598). The series can be described thus: MST with mutated Nur77-EGFP in HEK293T cell lysate. The series is classed as binding. The note with it: Nur77 mutated at Gln571, Glu398 and Phe598, Monolith NT.115, 40% MST power. On the procedure: The MST measure for the affinity of the peptide with purified Nur77 LBD protein was performed by Dianthus (Nano Temper). First, 1 × 10^−5 M protein was labeled with fluorescent dye and incubated with variable concentrations (0.1/0.4/0.8/1.6/3.1/6.3/12.5/25/50/100 × 10^−6 M) of peptides in PBST (containing 0.05% Tween‐20) (v/v, 10 µL: 10 µL). Incubated at room temperature away from light for 20 min, the mixture was loaded into the capillary and scanned. The MST measure for the affinity of the peptide with mutated Nur77‐EGFP was performed by Monolith NT.115 (Nano Temper). The HEK293T cell lysate was collected after transfection with the mutated Nur77‐EGFP plasmid for 48 h. The level of mutated Nur77‐EGFP was verified by the detection of fluorescence intensity. Different concentrations (0.1/0.4/0.8/1.6/3.1/6.3/12.5/25/50/100 × 10^−6 M) of ST‐CY14 were mixed with the cell lysate (v/v, 5 µL:5 µL) and incubated for 20 min. The measurement was carried out at 40% MST power.

Take `C[C@@H](O)[C@@H]1NC(=O)[C@H](CCCNC(=N)N)NC(=O)[C@H](CCCNC(=N)N)NC(=O)[C@@](C)(NC(=O)[C@H](Cc2ccccc2)NC(=O)CNC(=O)[C@H](CCCCN)NC(=O)[C@H](CS)NC(=O)CNC(=O)[C@H](CCC(=O)O)NC(=O)[C@@H](N)CS)CCCC=CCCC[C@@](C)(C(=O)N[C@@H](CCCNC(=N)N)C(=O)N[C@@H](Cc2ccc(O)cc2)C(=O)N[C@@H](Cc2ccc(O)cc2)C(=O)NCC(=O)N[C@@H](CCCNC(=N)N)C(=O)N[C@@H](CCCCN)C(=O)N[C@@H](CCCCN)C(=O)N[C@@H](CCCNC(=N)N)C(=O)N[C@@H](CCCNC(=N)N)C(=O)N[C@@H](CCC(N)=O)C(=O)N[C@@H](CCCNC(=N)N)C(=O)N[C@@H](CCCNC(=N)N)C(=O)N[C@@H](CCCNC(=N)N)C(N)=O)NC1=O` [ST-CY14] (H-CEGCKGF[S5]RRT[S5]RYYGRKKRRQRRR-NH2; staple 8-12): the “Sensitivity of normal breast cells” value in series [1] is reported as “less sensitive to ST‐CY14”. For the same compound, the “CD36 and FABP4 transcription (qPCR)” value in series [2] is “dose‐dependently inhibited CD36 and FABP4 expression at the transcriptional level”. Moreover, in series [3], the “CD36 and FABP4 protein expression (immunoblot)” value is “inhibited the protein expression of CD36 and FABP4”; the “Nur77 protein expression (immunoblot)” value is given as “increase in Nur77 expression”. Also, the “Oxygen consumption rate (OCR)” value in series [4] is “significantly reduced”. In addition, the “Interaction with mutated Nur77 (MST)” value in series [5] is “disrupted the interaction”.
